Laboratory results as given in patent US10752635B2, “Indazole compounds and uses thereof” (Incyte Corporation, priority 2018, dated 2020).

target: HPK1 (Homo sapiens (Human), UniProt Q92918); assay: HPK1 Kinase Binding Assay; settings: active HPK1 (SignalChem M23-11G), tracer 222, LanthaScreen Eu-Anti GST antibody, one hour at 25° C.
Description: A stock solution of 1 mM test compound was prepared in DMSO. The compound plate was prepared by 3-fold and 11-point serial dilutions. 0.1 μL of the compound in DMSO was transferred from the compound plate to the white 384 well polystyrene plates. The assay buffer contained 50 mM HEPES, pH 7.5, 0.01% Tween-20, 5 mM MgCl2, 0.01% BSA, and 5 mM DTT. 5 μL of 4 nM active HPK1 (SignalChem M23-11G) prepared in the buffer was added to the plate. The enzyme concentration given was based on the given stock concentration reported by the vender. […] After one hour incubation at 25° C., the plates were read on a PHERAstar FS plate reader (BMG Labtech). Ki values were determined.

HPK1, sequence (Q92918 1-346 limits assumed): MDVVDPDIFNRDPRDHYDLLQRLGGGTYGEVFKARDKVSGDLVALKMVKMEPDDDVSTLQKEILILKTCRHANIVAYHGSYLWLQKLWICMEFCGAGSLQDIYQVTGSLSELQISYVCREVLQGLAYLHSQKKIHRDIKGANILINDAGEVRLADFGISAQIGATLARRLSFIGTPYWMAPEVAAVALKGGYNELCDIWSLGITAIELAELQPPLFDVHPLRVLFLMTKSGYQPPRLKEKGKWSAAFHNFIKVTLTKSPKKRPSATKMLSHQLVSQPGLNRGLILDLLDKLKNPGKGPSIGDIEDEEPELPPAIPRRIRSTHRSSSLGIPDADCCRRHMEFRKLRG

Ki [nM] | Structure (SMILES)
< 100 | COc1cccc(F)c1-c1nccc(C(=O)Nc2cc(F)c3c(cnn3CCO)c2N2CC[C@@H](N)C2)n1 [Example 17, (R)—N-(4-(3-Aminopyrrolidin-1-yl)-7-fluoro-1-(2-hydroxyethyl)-1H-indazol-5-yl)-2-(2-fluoro-6-methoxyphenyl)pyrimidine-4-carboxamide]
< 100 | COc1cccc(F)c1-c1nccc(C(=O)Nc2cc(F)c3c(cnn3CCO)c2N2C[C@@H]3C[C@H]2CN3)n1 [Example 25, N-(4-((1S,4S)-2,5-diazabicyclo[2.2.1]heptan-2-yl)-7-fluoro-1-(2-hydroxyethyl)-1H-indazol-5-yl)-2-(2-fluoro-6-methoxyphenyl)pyrimidine-4-carboxamide]
< 100 | COCCn1ncc2c(N3C[C@@H]4C[C@H]3CN4)c(NC(=O)c3ccnc(-c4c(F)cccc4OC)n3)cc(F)c21 [Example 26, N-(4-((1S,4S)-2,5-diazabicyclo[2.2.1]heptan-2-yl)-7-fluoro-1-(2-methoxyethyl)-1H-indazol-5-yl)-2-(2-fluoro-6-methoxyphenyl)pyrimidine-4-carboxamide]
< 100 | COCCn1ncc2c(N3C[C@@H](N)C[C@H]3CO)c(NC(=O)c3ccnc(-c4c(F)cccc4OC)n3)cc(F)c21 [Example 31, N-(4-((2S,4S)-4-Amino-2-(hydroxymethyl)pyrrolidin-1-yl)-7-fluoro-1-(2-methoxyethyl)-1H-indazol-5-yl)-2-(2-fluoro-6-methoxyphenyl)pyrimidine-4-carboxamide]
< 100 | COc1cccc(F)c1-c1nccc(C(=O)Nc2cc(F)c3c(cnn3[C@@H]3CCOC3)c2N2C[C@@H](N)C[C@H]2CO)n1 [Example 32, N-(4-((2S,4S)-4-Amino-2-(hydroxymethyl)pyrrolidin-1-yl)-7-fluoro-1-((R)-tetrahydrofuran-3-yl)-1H-indazol-5-yl)-2-(2-fluoro-6-methoxyphenyl)pyrimidine-4-carboxamide]
< 100 | COc1cccc(F)c1-c1nccc(C(=O)Nc2cc(F)c3c(cnn3-c3ccncc3C#N)c2N2C[C@@H](N)C[C@H]2CO)n1 [Example 34, N-(4-((2S,4S)-4-Amino-2-(hydroxymethyl)pyrrolidin-1-yl)-1-(3-cyanopyridin-4-yl)-7-fluoro-1H-indazol-5-yl)-2-(2-fluoro-6-methoxyphenyl)pyrimidine-4-carboxamide]
< 100 | COc1cccc(F)c1-c1nccc(C(=O)Nc2cc(F)c3c(cnn3CCF)c2N2C[C@@H]3C[C@H]2CN3)n1 [Example 36, N-(4-((1S,4S)-2,5-Diazabicyclo[2.2.1]heptan-2-yl)-7-fluoro-1-(2-fluoroethyl)-1H-indazol-5-yl)-2-(2-fluoro-6-methoxyphenyl)pyrimidine-4-carboxamide]
< 100 | COCCn1ncc2c(N3C[C@@H](N)C[C@H]3CO)c(NC(=O)c3ccnc(-c4c(F)cc(N)cc4OC)n3)cc(F)c21 [Example 38, N-(4-((2S,4S)-4-Amino-2-(hydroxymethyl)pyrrolidin-1-yl)-7-fluoro-1-(2-methoxyethyl)-1H-indazol-5-yl)-2-(4-amino-2-fluoro-6-methoxyphenyl)pyrimidine-4-carboxamide]

The next lines start with the compound.

Structure (SMILES) | Ki [nM]
COc1cccc(F)c1-c1nccc(C(=O)Nc2cc(F)c3c(cnn3C)c2-c2cccnc2)n1 [Example 20, N-(7-Fluoro-1-methyl-4-(pyridin-3-yl)-1H-indazol-5-yl)-2-(2-fluoro-6-methoxyphenyl)pyrimidine-4-carboxamide] | < 100
COc1cccc(F)c1-c1nccc(C(=O)Nc2cc(F)c3c(cnn3C)c2-c2cnn(C)c2)n1 [Example 21, N-(7-Fluoro-1-methyl-4-(1-methyl-1H-pyrazol-4-yl)-1H-indazol-5-yl)-2-(2-fluoro-6-methoxyphenyl)pyrimidine-4-carboxamide] | < 100
COc1cccc(F)c1-c1nccc(C(=O)Nc2cc(F)c3c(cnn3C)c2-c2cccc(CO)c2)n1 [Example 22, N-(7-Fluoro-4-(3-(hydroxymethyl)phenyl)-1-methyl-1H-indazol-5-yl)-2-(2-fluoro-6-methoxyphenyl)pyrimidine-4-carboxamide] | < 100
COc1cccc(F)c1-c1nccc(C(=O)Nc2cc(F)c3c(cnn3C)c2-c2ccccc2CO)n1 [Example 23, N-(7-Fluoro-4-(2-(hydroxymethyl)phenyl)-1-methyl-1H-indazol-5-yl)-2-(2-fluoro-6-methoxyphenyl)pyrimidine-4-carboxamide] | < 100
COc1cccc(F)c1-c1nccc(C(=O)Nc2cc(F)c3c(cnn3C)c2-c2cccc(CN(C)C)c2)n1 [Example 24, N-(4-(3-((Dimethylamino)methyl)phenyl)-7-fluoro-1-methyl-1H-indazol-5-yl)-2-(2-fluoro-6-methoxyphenyl)pyrimidine-4-carboxamide] | < 100
COc1cccc(F)c1-c1nccc(C(=O)Nc2ccc3c(c(I)nn3C)c2N2CCC(N(C)C)CC2)n1 [Example 27, N-(4-(4-(Dimethylamino)piperidin-1-yl)-3-iodo-1-methyl-1H-indazol-5-yl)-2-(2-fluoro-6-methoxyphenyl)pyrimidine-4-carboxamide] | < 100
COc1cccc(F)c1-c1nccc(C(=O)Nc2ccc3c(c(C)nn3C)c2N2CCC(N(C)C)CC2)n1 [Example 28, N-(4-(4-(Dimethylamino)piperidin-1-yl)-1,3-dimethyl-1H-indazol-5-yl)-2-(2-fluoro-6-methoxyphenyl)pyrimidine-4-carboxamide] | < 100
COc1cccc(F)c1-c1nccc(C(=O)Nc2ccc3c(c(-c4ccccc4)nn3C)c2N2CCC(N(C)C)CC2)n1 [Example 29, N-(4-(4-(Dimethylamino)piperidin-1-yl)-1-methyl-3-phenyl-1H-indazol-5-yl)-2-(2-fluoro-6-methoxyphenyl)pyrimidine-4-carboxamide] | 100 to 500
COc1cccc(F)c1-c1nccc(C(=O)Nc2ccc3c(c(-c4cnn(C)c4)nn3C)c2N2CCC(N(C)C)CC2)n1 [Example 30, N-(4-(4-(Dimethylamino)piperidin-1-yl)-1-methyl-3-(1-methyl-1H-pyrazol-4-yl)-1H-indazol-5-yl)-2-(2-fluoro-6-methoxyphenyl)pyrimidine-4-carboxamide] | < 100
COc1cccc(F)c1-c1nccc(C(=O)Nc2cc(F)c3nn(C)cc3c2N2CCN[C@@H](CO)C2)n1 [Example 33, (R)—N-(7-Fluoro-4-(3-(hydroxymethyl)piperazin-1-yl)-2-methyl-2H-indazol-5-yl)-2-(2-fluoro-6-methoxyphenyl)pyrimidine-4-carboxamide] | < 100
[2H]C([2H])([2H])Oc1ccc(C)c(F)c1-c1nccc(C(=O)Nc2cc(F)c3c(cnn3CCOC)c2N2C[C@@H](N)C[C@H]2CO)n1 [Example 37, N-(4-((2S,4S)-4-Amino-2-(hydroxymethyl)pyrrolidin-1-yl)-7-fluoro-1-(2-methoxyethyl)-1H-indazol-5-yl)-2-(2-fluoro-6-(methoxy-d3)-3-methylphenyl)pyrimidine-4-carboxamide] | < 100
CNC(=O)c1ccc(OC)c(-c2nccc(C(=O)Nc3cc(F)c4c(cnn4CCOC)c3N3C[C@@H](N)C[C@H]3CO)n2)c1F [Example 39, N-(4-((2S,4S)-4-Amino-2-(hydroxymethyl)pyrrolidin-1-yl)-7-fluoro-1-(2-methoxyethyl)-1H-indazol-5-yl)-2-(2-fluoro-6-methoxy-3-(methylcarbamoyl)phenyl)pyrimidine-4-carboxamide] | < 100
COCCn1ncc2c(N3C[C@@H](N)C[C@H]3CO)c(NC(=O)c3ccnc(-c4c(OC)ccc(-c5cnn(C)c5)c4F)n3)cc(F)c21 [Example 40, N-(4-((2S,4S)-4-Amino-2-(hydroxymethyl)pyrrolidin-1-yl)-7-fluoro-1-(2-methoxyethyl)-1H-indazol-5-yl)-2-(2-fluoro-6-methoxy-3-(1-methyl-1H-pyrazol-4-yl)phenyl)pyrimidine-4-carboxamide] | < 100
COc1cccc(F)c1-c1nccc(C(=O)Nc2cc(F)c3c(cnn3C)c2N(C)[C@@H]2CCCNC2)n1 [Example 41, (R)—N-(7-Fluoro-1-methyl-4-(methyl(piperidin-3-yl)amino)-1H-indazol-5-yl)-2-(2-fluoro-6-methoxyphenyl)pyrimidine-4-carboxamide] | < 100
COCCn1ncc2c(N3C[C@@H](N)C[C@H]3CO)c(NC(=O)c3cccc(-c4c(F)cccc4OC)n3)cc(F)c21 [Example 42, N-(4-((2S,4S)-4-Amino-2-(hydroxymethyl)pyrrolidin-1-yl)-7-fluoro-1-(2-methoxyethyl)-1H-indazol-5-yl)-6-(2-fluoro-6-methoxyphenyl)picolinamide] | < 100
